Laboratory results from the supplement of paper PMC10307832.

Legend:
Assay in all cases: relative viability (nuclei count vs DMSO), 5 days (fraction); higher = more cells survive
AT9283 + Foretinib = compound: O=C(Nc1c[nH]nc1-c1nc2ccc(CN3CCOCC3)cc2[nH]1)NC1CC1 [AT9283] + COc1cc2c(Oc3ccc(NC(=O)C4(C(=O)Nc5ccc(F)cc5)CC4)cc3F)ccnc2cc1OCCCN1CCOCC1 [Foretinib] (partner 0.25 µM)
How it was run: (§1)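 Lung cancer cell lines, seeded in 1536-well plates, were treated the following day by pin tool with a single drug or with five library-drug doses (not always all listed) in √10 steps on top of a fixed anchor-drug dose. Cells were fixed and nuclei stained in one step after 5 days, and nuclei were counted. Relative viability is the nuclei count for treated wells divided by that for vehicle wells, reported as medians of duplicate plates.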

AT9283 + Pictilisib = compound: O=C(Nc1c[nH]nc1-c1nc2ccc(CN3CCOCC3)cc2[nH]1)NC1CC1 [AT9283] + CS(=O)(=O)N1CCN(Cc2cc3nc(-c4cccc5[nH]ncc45)nc(N4CCOCC4)c3s2)CC1 [Pictilisib] (partner 1 µM)
How it was run: as §1

AT9283 + Olaparib = compound: O=C(Nc1c[nH]nc1-c1nc2ccc(CN3CCOCC3)cc2[nH]1)NC1CC1 [AT9283] + O=C(c1cc(Cc2n[nH]c(=O)c3ccccc23)ccc1F)N1CCN(C(=O)C2CC2)CC1 [Olaparib] (partner 8 µM)
How it was run: as §1

Erlotinib + OSI-027 = compound: C#Cc1cccc(Nc2ncnc3cc(OCCOC)c(OCCOC)cc23)c1 [Erlotinib] + COc1cccc2cc(-c3nc([C@H]4CC[C@H](C(=O)O)CC4)n4ncnc(N)c34)[nH]c12 [OSI-027] (partner 0.5 µM)
How it was run: as §1

Erlotinib + Vorinostat = compound: C#Cc1cccc(Nc2ncnc3cc(OCCOC)c(OCCOC)cc23)c1 [Erlotinib] + O=C(CCCCCCC(=O)Nc1ccccc1)NO [Vorinostat] (partner 1 µM)
How it was run: as §1

Cell Line	relative viability (AT9283 + Foretinib; first compound 0.003 µM)	relative viability (AT9283 + Foretinib; first compound 0.03 µM)	relative viability (AT9283 + Foretinib; first compound 0.09487 µM)	relative viability (AT9283 + Foretinib; first compound 0.3 µM)	relative viability (AT9283 + Pictilisib; first compound 0.003 µM)	relative viability (AT9283 + Pictilisib; first compound 0.03 µM)	relative viability (AT9283 + Pictilisib; first compound 0.09487 µM)	relative viability (AT9283 + Pictilisib; first compound 0.3 µM)	relative viability (AT9283 + Olaparib; first compound 0.003 µM)	relative viability (AT9283 + Olaparib; first compound 0.03 µM)	relative viability (AT9283 + Olaparib; first compound 0.09487 µM)	relative viability (AT9283 + Olaparib; first compound 0.3 µM)	relative viability (Erlotinib + OSI-027; first compound 0.02 µM)	relative viability (Erlotinib + OSI-027; first compound 0.2 µM)	relative viability (Erlotinib + OSI-027; first compound 0.6325 µM)	relative viability (Erlotinib + OSI-027; first compound 2 µM)	relative viability (Erlotinib + Vorinostat; first compound 0.02 µM)	relative viability (Erlotinib + Vorinostat; first compound 0.2 µM)	relative viability (Erlotinib + Vorinostat; first compound 0.6325 µM)	relative viability (Erlotinib + Vorinostat; first compound 2 µM)
Calu-6	0.728	0.203	0.214	0.24	0.932	0.242	0.227	0.194	0.575	0.228	0.178	0.197	–	–	–	–	–	–	–	–
ChaGo-K-1	0.918	0.521	0.319	0.268	0.357	0.511	0.179	0.233	0.444	0.352	0.252	0.203	0.695	0.55	0.549	0.434	0.784	0.721	0.82	0.74
EBC-1	0.107	0.0785	0.0877	0.075	0.368	0.158	0.149	0.124	0.669	0.334	0.18	0.145	–	–	–	–	–	–	–	–
EKVX	0.775	0.728	0.626	0.257	0.419	0.411	0.199	0.142	0.796	0.758	0.496	0.239	0.679	0.506	0.34	0.187	0.716	0.372	0.323	0.259
EMC-BAC-2	1.04	0.305	0.289	0.208	0.537	0.375	0.228	0.235	0.502	0.301	0.261	0.203	0.394	0.416	0.353	0.302	–	0.543	0.524	0.446
EPLC-272H	0.622	0.217	0.12	0.123	0.318	0.26	0.199	0.165	0.698	0.18	0.107	0.119	0.342	0.304	0.26	0.196	0.459	0.411	0.396	0.292
H3255	0.924	0.794	0.734	0.183	0.448	0.461	0.213	0.148	0.553	0.52	0.545	0.231	0.638	0.345	0.207	0.202	0.705	0.817	0.628	0.206
HARA	0.79	0.151	0.122	0.109	0.373	0.425	0.0788	0.0662	0.756	0.278	0.205	0.179	0.575	0.492	0.44	0.217	0.643	0.598	0.402	0.445
HCC-15	1.02	0.397	0.161	0.19	0.686	0.494	0.136	0.138	0.691	0.574	0.192	0.183	0.702	0.736	0.676	0.588	0.876	–	0.868	0.676
